Results from ChEMBL document CHEMBL5370618, “Hypoxia-Directed and Self-Immolative Theranostic Agent: Imaging and Treatment of Cancer and Bacterial Infections” (J Med Chem, 2023).
The source made the active and inactive calls.

How the values were obtained:
Escherichia coli = assay: Antibacterial activity against Escherichia coli assessed as reduction in bacterial cell viability at 250 to 500 uM incubated for 24 hrs by CFU assay; format: functional, organism-based; settings: dose 250-500 µM
[1] = Biodistribution in tumor of BALB/c mouse xenografted with human hypoxic A549 cells assessed as fold increase in drug uptake at 2.5 mg/kg,iv and measured after 29 hrs by fluorescence imaging analysis relative to control; format: ADME, organism-based, Neoplasm; settings: in vivo
[2] = Prodrug conversion in human serum assessed as […] mediated drug degradation by measuring fluorescence production at 10 uM incubated for 30 mins by fluorescence spectroscopic analysis; format: ADME, cell-free; settings: 0.5 h
[3] = Prodrug conversion in BALB/c mouse xenografted with human hypoxic A549 cells assessed as rhodamine release by measuring increase in fluorescence intensity in tumor at 2.5 mg/kg,iv and measured after 2.5 hrs by fluorescence imaging analysis; format: ADME, organism-based; settings: in vivo
[4] = Prodrug conversion in human serum assessed as HNO mediated drug degradation by measuring fluorescence production at 10 uM incubated for 30 mins by fluorescence spectroscopic analysis; format: ADME, cell-free; settings: 0.5 h
[5] = Biodistribution in spleen of BALB/c mouse xenografted with human hypoxic A549 cells assessed as drug uptake at 2.5 mg/kg,iv and measured after 29 hrs by fluorescence imaging analysis; format: ADME, organism-based; settings: in vivo
[6] = Prodrug conversion in human serum assessed as serine mediated drug degradation by measuring fluorescence production at 10 uM incubated for 30 mins by fluorescence spectroscopic analysis; format: ADME, cell-free; settings: 0.5 h
[7] = Biodistribution in intestine of BALB/c mouse xenografted with human hypoxic A549 cells assessed as drug uptake at 2.5 mg/kg,iv and measured after 29 hrs by fluorescence imaging analysis; format: ADME, organism-based; settings: in vivo
[8] = Prodrug conversion in BALB/c mouse xenografted with human hypoxic A549 cells assessed as rhodamine release by measuring increase in fluorescence intensity in body at 2.5 mg/kg,iv and measured upto 29 hrs by fluorescence imaging analysis; format: ADME, organism-based; settings: in vivo
[9] = Prodrug conversion in human serum assessed as Cu2+ ion mediated drug degradation by measuring fluorescence production at 10 uM incubated for 30 mins by fluorescence spectroscopic analysis; format: ADME, cell-free; settings: 0.5 h
[10] = Prodrug conversion in human serum assessed as pepsin mediated drug degradation by measuring fluorescence production at 10 uM incubated for 30 mins by fluorescence spectroscopic analysis; format: ADME, cell-free; settings: 0.5 h
[11] = Prodrug conversion in human serum assessed as cysteine mediated drug degradation by measuring fluorescence production at 10 uM incubated for 30 mins by fluorescence spectroscopic analysis; format: ADME, cell-free; settings: 0.5 h
[12] = Prodrug conversion in human serum assessed as H2O2 mediated drug degradation by measuring fluorescence production at 10 uM incubated for 30 mins by fluorescence spectroscopic analysis; format: ADME, cell-free; settings: 0.5 h
Bacillus subtilis = assay: Antibacterial activity against Bacillus subtilis assessed as reduction in bacterial cell viability at 250 to 500 uM incubated for 24 hrs by CFU assay; format: functional, organism-based; settings: dose 250-500 µM
[13] = Prodrug conversion in BALB/c mouse xenografted with human hypoxic A549 cells assessed as rhodamine release by measuring fold increase in fluorescence intensity in tumor at 2.5 mg/kg,iv and measured after 17 hrs by fluorescence imaging analysis relative to control; format: ADME, organism-based; settings: in vivo
[14] = Prodrug conversion in human serum assessed as Fe3+ ion mediated drug degradation by measuring fluorescence production at 10 uM incubated for 30 mins by fluorescence spectroscopic analysis; format: ADME, cell-free; settings: 0.5 h
[15] = Prodrug conversion in PBS at pH 7.4 assessed as Escherichia coli nitroreductase mediated drug degradation by measuring increase in maximum absorption at 522nm at 5 uM in presence of NADH as cofactor by UV-Vis spectroscopic analysis; format: ADME; settings: isolated protein, pH 7.4, 5 µM
[16] = Prodrug conversion in Escherichia coli assessed as nitroreductase mediated drug degradation by measuring increase in fluorescence intensity at 10 uM in presence of dicoumarol by fluorescence analysis; format: ADME
[17] = Prodrug conversion in PBS at 7.4 assessed as Escherichia coli nitroreductase mediated drug degradation by measuring norfloxacin metabolite formation at 10 uM incubated for 30 mins by HRMS analysis; format: ADME; settings: isolated protein, pH 7.4, 0.5 h
[18] = Prodrug conversion in pH 4 to 8 buffer assessed as Escherichia coli nitroreductase mediated drug degradation by measuring fluorescence intensity at 10 uM incubated for 30 mins by fluorescence spectroscopic analysis; format: ADME; settings: isolated protein, pH 4, 0.5 h
[19] = Prodrug conversion in Escherichia coli assessed as nitroreductase mediated drug degradation by measuring fold increase in fluorescence intensity at 10 uM by fluorescence analysis relative to control; format: ADME
[20] = Prodrug conversion in human serum assessed as glutamic acid mediated drug degradation by measuring fluorescence production at 10 uM incubated for 30 mins by fluorescence spectroscopic analysis; format: ADME, cell-free; settings: 0.5 h
[21] = Biodistribution in heart of BALB/c mouse xenografted with human hypoxic A549 cells assessed as drug uptake at 2.5 mg/kg,iv and measured after 29 hrs by fluorescence imaging analysis; format: ADME, organism-based; settings: in vivo
[22] = Prodrug conversion in human serum assessed as ascorbic acid mediated drug degradation by measuring fluorescence production at 10 uM incubated for 30 mins by fluorescence spectroscopic analysis; format: ADME, cell-free; settings: 0.5 h
[23] = Biodistribution in stomach of BALB/c mouse xenografted with human hypoxic A549 cells assessed as drug uptake at 2.5 mg/kg,iv and measured after 29 hrs by fluorescence imaging analysis; format: ADME, organism-based; settings: in vivo
[24] = Prodrug conversion in human serum assessed as FADH2 mediated drug degradation by measuring fluorescence production at 10 uM incubated for 30 mins by fluorescence spectroscopic analysis; format: ADME, cell-free; settings: 0.5 h
[25] = Prodrug conversion in human serum assessed as Fe2+ ion mediated drug degradation by measuring fluorescence production at 10 uM incubated for 30 mins by fluorescence spectroscopic analysis; format: ADME, cell-free; settings: 0.5 h
[26] = Prodrug conversion in PBS at 7.4 assessed as Escherichia coli nitroreductase mediated drug degradation by measuring increase in fluorescence emission at 545nm at 10 uM in presence of NADH as cofactor by fluorescence spectroscopic analysis; format: ADME; settings: isolated protein, pH 7.4, 10 µM
[27] = Prodrug conversion in human serum assessed as glutathione mediated drug degradation by measuring fluorescence production at 10 uM incubated for 30 mins by fluorescence spectroscopic analysis; format: ADME, cell-free; settings: 0.5 h
[28] = Prodrug conversion in human serum assessed as arginine mediated drug degradation by measuring fluorescence production at 10 uM incubated for 30 mins by fluorescence spectroscopic analysis; format: ADME, cell-free; settings: 0.5 h
[29] = Prodrug conversion in PBS at 7.4 assessed as Escherichia coli nitroreductase mediated drug degradation by measuring rhodamine metabolite formation at 10 uM incubated for 30 mins by HRMS analysis; format: ADME; settings: isolated protein, pH 7.4, 0.5 h
[30] = Prodrug conversion in tumor of BALB/c mouse xenografted with human hypoxic A549 cells assessed as fold increase in fluorescence intensity at 2.5 mg/kg,iv and measured after 29 hrs by fluorescence imaging analysis relative to control; format: ADME, organism-based, Neoplasm; settings: in vivo
[31] = Biodistribution in tumor of BALB/c mouse xenografted with human hypoxic A549 cells assessed as drug uptake at 2.5 mg/kg,iv and measured after 29 hrs by fluorescence imaging analysis; format: ADME, organism-based, Neoplasm; settings: in vivo
[32] = Prodrug conversion in human serum assessed as Zn2+ ion mediated drug degradation by measuring fluorescence production at 10 uM incubated for 30 mins by fluorescence spectroscopic analysis; format: ADME, cell-free; settings: 0.5 h
[33] = Prodrug conversion in human serum assessed as NO mediated drug degradation by measuring fluorescence production at 10 uM incubated for 30 mins by fluorescence spectroscopic analysis; format: ADME, cell-free; settings: 0.5 h
[34] = Prodrug conversion in PBS at pH 7.4 assessed as Escherichia coli nitroreductase mediated drug degradation by measuring change in fluorescence intensity at 545nm at 10 uM incubated for 20 mins by fluorescence spectroscopic analysis; format: ADME; settings: isolated protein, pH 7.4, 20 min
[35] = Prodrug conversion in Bacillus subtilis assessed as nitroreductase mediated drug degradation by measuring increase in fluorescence intensity at 10 uM in presence of dicoumarol by fluorescence analysis; format: ADME
[36] = Prodrug conversion in Bacillus subtilis assessed as nitroreductase mediated drug degradation by measuring increase in fluorescence intensity at 10 uM by fluorescence analysis; format: ADME
[37] = Prodrug conversion in human serum assessed as tyrosinase mediated drug degradation by measuring fluorescence production at 10 uM incubated for 30 mins by fluorescence spectroscopic analysis; format: ADME, cell-free; settings: 0.5 h
[38] = Biodistribution in liver of BALB/c mouse xenografted with human hypoxic A549 cells assessed as drug uptake at 2.5 mg/kg,iv and measured after 29 hrs by fluorescence imaging analysis; format: ADME, organism-based; settings: in vivo
[39] = Prodrug conversion in human serum assessed as NO3- ion mediated drug degradation by measuring fluorescence production at 10 uM incubated for 30 mins by fluorescence spectroscopic analysis; format: ADME, cell-free; settings: 0.5 h
[40] = Prodrug conversion in human serum assessed as GSH mediated drug degradation by measuring fluorescence production at 10 uM incubated for 30 mins by fluorescence spectroscopic analysis; format: ADME, cell-free; settings: 0.5 h
[41] = Prodrug conversion in BALB/c mouse xenografted with human hypoxic A549 cells assessed as rhodamine release by measuring increase in fluorescence intensity in tumor at 2.5 mg/kg,iv and measured after 29 hrs by fluorescence imaging analysis; format: ADME, organism-based; settings: in vivo
[42] = Prodrug conversion in human serum assessed as hydroxyl radical mediated drug degradation by measuring fluorescence production at 10 uM incubated for 30 mins by fluorescence spectroscopic analysis; format: ADME, cell-free; settings: 0.5 h
[43] = Biodistribution in kidney of BALB/c mouse xenografted with human hypoxic A549 cells assessed as drug uptake at 2.5 mg/kg,iv and measured after 29 hrs by fluorescence imaging analysis; format: ADME, organism-based; settings: in vivo
[44] = Prodrug conversion in human serum assessed as trypsin mediated drug degradation by measuring fluorescence production at 10 uM incubated for 30 mins by fluorescence spectroscopic analysis; format: ADME, cell-free; settings: 0.5 h
[45] = Prodrug conversion in Escherichia coli assessed as nitroreductase mediated drug degradation by measuring increase in fluorescence intensity at 10 uM by fluorescence analysis relative to control; format: ADME

CCn1cc(C(=O)O)c(=O)c2cc(F)c(N3CCNCC3)cc21
active: Activity (Escherichia coli)

CCN(CC)c1ccc2c(c1)Oc1cc(OC(=O)OCc3cc(C)cc(COC(=O)c4cn(CC)c5cc(N6CCNCC6)c(F)cc5c4=O)c3OCc3ccc([N+](=O)[O-])cc3)ccc1C21OC(=O)c2ccccc21 (centres undefined)
Metabolite_Detected: Drug metabolism [3] | Drug metabolism [8] | Drug metabolism [15] | Drug metabolism [17] | Drug metabolism [18] | Drug metabolism [26] | Drug metabolism [29] | Drug metabolism [34] | Drug metabolism [36] | Drug metabolism [41]
4.1: fold change (FC) [13]
Active: Drug uptake [7] | Drug uptake [23] | Drug uptake [31]
4.5: fold change (FC) [30]
4: fold change (FC) [1]
Metabolite_Notdetected: Drug metabolism [2] | Drug metabolism [4] | Drug metabolism [6] | Drug metabolism [9] | Drug metabolism [10] | Drug metabolism [11] | Drug metabolism [12] | Drug metabolism [14] | Drug metabolism [16] | Drug metabolism [20] | Drug metabolism [22] | Drug metabolism [24] | Drug metabolism [25] | Drug metabolism [27] | Drug metabolism [28] | Drug metabolism [32] | Drug metabolism [33] | Drug metabolism [35] | Drug metabolism [37] | Drug metabolism [39] | Drug metabolism [40] | Drug metabolism [42] | Drug metabolism [44]
active: Activity (Bacillus subtilis) Dose-Dependent Effect | Activity (Escherichia coli)
Not Active: Drug uptake [5] | Drug uptake [21] | Drug uptake [38] | Drug uptake [43]
3.5: fold change (FC) [19]

CCN(CC)c1ccc2c(c1)Oc1cc(OC(=O)OCc3cc(C)cc(COC(=O)c4cn(CC)c5cc(N6CCNCC6)c(F)cc5c4=O)c3OCc3ccccc3)ccc1C21OC(=O)c2ccccc21 (centres undefined)
Metabolite_Notdetected: Drug metabolism [45] | Drug metabolism [15] | Drug metabolism [36] | Drug metabolism [41]
active: Activity (Bacillus subtilis) Dose-Dependent Effect | Activity (Escherichia coli)
Not Active: Drug uptake [31]
